Read-outs that look alike come from different tables or passages of the source.

Data set [1] concerns human lung cancer Calu-6 xenograft. In words: Antitumor effect in xenograft model, compound 2A plus CDDP or carboplatin (Example 4). The data set is classed as in vivo. The note with it: mice; i.v. once in a three-week period. The method, then:
The human lung cancer cell line Calu-6 was purchased from ATCC.
CPT-11, CDDP, and carboplatin were purchased from Daiichi Pharmaceuticals, Nippon Kayaku, and Bristol-Meyers Squibb, respectively.
Compound 2A, CPT-11, CDDP, and carboplatin were dissolved and diluted in a saline solution. […] CDDP and carboplatin were intravenously administered once in a three-week period.
In one therapeutic cycle, compound 2A and CPT-11 were administered once a week for three consecutive weeks, and CDDP and carboplatin were administered once in the three-week period.

Data set [2] concerns human colorectal cancer HCT116 xenograft.
Procedure: The human colorectal cancer cell line HCT116 was purchased from ATCC. Cells were monolayer cultured in McCoy's 5a medium containing 2 mM L-glutamine and 10% (v/v) fetal bovine serum.
Five-week old male athymic nude mice (BALB/c nu/nu) were purchased from Charles River Japan. The mice were reared for at least one week prior to the experiment at the animal facility of the research institute.
A single cell suspension of HCT116 (8×10^6 cells per mouse) was inoculated subcutaneously into the right side of the abdomen of each mouse. The tumor size of each mouse was measured twice a week and the tumor volume was estimated using the ab^2/2 formula (a and b refer to the length and width of the tumor, respectively). Randomization and administration pharmaceuticals were begun the day the tumor volume exceeded 100 mm^3
The dosage is as follows.
Capecitabine was dissolved and diluted in 40 mM citric acid buffer (pH6) containing 5% gum arabic.
Data set [3] deals with human pancreatic cancer Capan-1 xenograft. As to conditions: mice; i.v. once a week for four consecutive weeks.
Procedure: A single cell suspension of Capan-1 (8.4×10^6 cells per mouse) was inoculated subcutaneously into the right side of the abdomen of each mouse. The tumor size of each mouse was measured twice a week and the tumor volume was estimated using the ab^2/2 formula (a and b refer to the length and width of the tumor, respectively). Randomization and administration of pharmaceuticals were begun the day the tumor volume exceeded 100 mm^3
Gemcitabine was dissolved and diluted in physiological saline, and intravenously administered once a week for four consecutive weeks.
Gemcitabine was administered once a week for four consecutive weeks.

`N.N.O=C([O-])C1(C(=O)[O-])CCC1.[Pt+2]` [carboplatin]: the “MTD (maximum tolerated dose)” value in data set [1] is recorded as 50 mg/kg/injection. For the compound `CCCCCN1C=Nc2cccc3nc4c(c1c23)Cn1c-4cc2c(c1=O)COC(=O)[C@@]2(CC)OC(=O)CN(C)C(=O)CN.Cl` [compound 2A, (9S)-9-ethyl-9-(glycyl-sarcosyloxy)-1-pentyl-1H,12H-pyrano[3″,4″:6′,7′]indolizino[1′,2′:6,5]pyrido[4,3,2-de]quinazoline-10,13(9H,15H)-dione hydrochloride], the “MTD (maximum tolerated dose)” value in data set [2] (mice, i.v. once during a three-week period, actually measured weight of the hydrochloride) amounted to 60 mg/kg/injection. For the same compound, in data set [2] (mice, i.v. once during a three-week period, weight converted to free base), the “MTD (maximum tolerated dose) as free base” value is listed as 47 mg/kg/injection. As to `CCCCCOC(=O)Nc1nc(=O)n([C@@H]2O[C@H](C)[C@@H](O)[C@H]2O)cc1F` [capecitabine], the “MTD (maximum tolerated dose)” value in data set [2] (mouse, in vivo, po) came to 360 mg/kg/injection. `Nc1ccn([C@@H]2O[C@H](CO)[C@@H](O)C2(F)F)c(=O)n1` [gemcitabine]: in data set [3], the “MTD (maximum tolerated dose)” value turned out to be 400 mg/kg/injection.
